Values quoted from earlier work, collected in paper PMC7394005, “Assessing the Selectivity of FXR, LXRs, CAR, and RORγ Pharmaceutical Ligands With Reporter Cell Lines” (Frontiers in Pharmacology, 2020).

Tests used:
[1] = system: CAR/SRC-1; parameters: method as in Maglich et al., 2003; settings: ref Maglich et al., 2003; read-out: EC50 in the CAR/SRC-1 FRET assay; cited from earlier work
[2] = system: FXR; parameters: method as in Yu et al., 2014; settings: ref Yu et al., 2014; read-out: IC50 in FXR cell-based antagonistic assays; cited from earlier work
[3] = system: LXRβ; settings: luciferase reporter gene with LXR response elements in HEK293 cells; ref Peng et al., 2011; cited from earlier work
[4] = system: type 1 diabetes model mice; parameters: method as in Solt et al., 2015; settings: ref Solt et al., 2015; cited from earlier work
[5] = system: RORγt; parameters: method as in Rene et al., 2014; Chang et al., 2016; settings: full-length RORγt transfected cells; ref Rene et al., 2014; Chang et al., 2016; read-out: EC50, induction of reporter gene expression; cited from earlier work
[6] = system: hPXR LBD; parameters: method as in Shukla et al., 2011; settings: ref Shukla et al., 2011; cited from earlier work
[7] = system: hPXR; parameters: method as in Lin et al., 2017; settings: ref Lin et al., 2017; read-out: IC50 in the cell-based hPXR antagonistic assay; cited from earlier work

Molecule: Clc1ccc(-c2nc3sccn3c2/C=N/OCc2ccc(Cl)c(Cl)c2)cc1 [CITCO]
- EC50 [1]: 49 nM

Molecule: COc1cccc(Cn2cc(C(=O)Nc3ccc(C)c(S(=O)(=O)N4CCOCC4)c3)c(-c3ccc(C)cc3)n2)c1 [DY268]
- IC50 [2]: 468 nM

Molecule: O=C(O)Cc1cccc(OCCCN(Cc2cccc(C(F)(F)F)c2Cl)CC(c2ccccc2)c2ccccc2)c1 [GW3965]
- LXRβ agonistic potency [3]: nanomolar

Molecule: CC(=O)Nc1nc(C)c(S(=O)(=O)Nc2ccc(C(O)(C(F)(F)F)C(F)(F)F)cc2)s1 [SR1001]
- Diabetes incidence and insulitis [4]: significantly reduced diabetes incidence and insulitis

Molecule: O=C(Nc1ccc(C(O)(C(F)(F)F)C(F)(F)F)cc1)c1ccc(C(F)(F)F)cc1 [SR1078]
- EC50 [5]: 800 nM

Molecule: CCOP(=O)(OCC)C(=Cc1cc(C(C)(C)C)c(O)c(C(C)(C)C)c1)P(=O)(OCC)OCC [SR12813]
- EC50 [6]: 440 nM

Molecule: SPA70
- IC50 [7]: 510 nM
